{"source": "patent US20090053721A1", "about": "“VOLTAGE-GATED ION CHANNEL MUTANTS FOR USE IN IDENTIFYING ION CHANNEL MODULATING COMPOUNDS” (CARDIOME PHARMA CORP., priority 2007, published 2009)", "assay_in_all_cases": "Whole-cell patch-clamp block of mutant Kv1.5 current in HEK293 cells", "type_in_all_cases": "cell-based", "key": {"[1]": {"molecular_target": "T1, Kv1.5 A501V mutant channel (Homo sapiens, UniProt P22460, A501V)", "T1 construct": "subcloned as a fragment back into full-length Kv1.5; expressed in transfected cells; host or cells: HEK293, transient transfection", "T1 sequence (P22460 whole entry A501V, the tested form may be a part)": "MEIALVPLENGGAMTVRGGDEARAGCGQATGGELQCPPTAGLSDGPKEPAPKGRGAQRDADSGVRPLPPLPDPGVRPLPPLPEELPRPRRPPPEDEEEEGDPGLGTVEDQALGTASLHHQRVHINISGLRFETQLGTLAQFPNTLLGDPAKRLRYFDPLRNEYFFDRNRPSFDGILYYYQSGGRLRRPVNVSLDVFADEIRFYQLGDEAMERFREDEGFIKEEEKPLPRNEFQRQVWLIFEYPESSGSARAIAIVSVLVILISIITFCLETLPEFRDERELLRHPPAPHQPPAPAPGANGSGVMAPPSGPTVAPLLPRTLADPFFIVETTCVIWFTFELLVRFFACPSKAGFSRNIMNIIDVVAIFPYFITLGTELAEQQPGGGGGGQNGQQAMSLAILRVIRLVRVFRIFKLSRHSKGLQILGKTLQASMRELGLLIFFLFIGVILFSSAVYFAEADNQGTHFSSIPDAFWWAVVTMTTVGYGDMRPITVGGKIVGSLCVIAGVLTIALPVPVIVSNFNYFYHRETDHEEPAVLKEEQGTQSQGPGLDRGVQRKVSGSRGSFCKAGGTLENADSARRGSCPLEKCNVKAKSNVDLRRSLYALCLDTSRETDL", "procedure": "(§1) Stable lines of HEK293 cells expressing Kv1.5, or transient transfection of mutant Kv1.5 channels were used in all experiments. […] (Coralville, Iowa, USA), and mutants were generated using the Stratagene Quikchange kit (Stratagene, Calif., USA). […] This was added to the cells for overnight incubation after washing the media with 900 μl of MEM with 10% FBS. […] Media contained 10% bovine serum and 0.5 mg/ml geneticin for stable lines. On the day before recording, stably-expressing cells were washed with MEM, treated with trypsin/EGTA for one minute and plated on 25 mm^2 coverslips. All cell culture supplies were obtained from Invitrogen (Mississauga, ON, Canada). Control bath solution contained (in mM): 5 KCl, 135 NaCl, 2.8 sodium acetate, 1 MgCl2, 10 HEPES and 1 CaCl2, adjusted to pH 7.4 with NaOH. Patch pipettes contained (in mM): 130 KCl, 5 EGTA, 1 MgCl2, 10 HEPES, 4 Na2ATP, and 0.1 GTP, adjusted to pH 7.2 with KOH. All chemicals used to make solutions were obtained from Sigma-Aldrich (Mississauga, ON, Canada). […] (Vancouver, BC, Canada) and prepared as a stock solution (50 mM) in H2O. […] DMSO concentrations for either drug never exceeded 0.1% v/v in the final experimental solutions. Coverslips with adherent cells plated on the surface were placed in a superfusion chamber (volume 300 μl) containing the control bath solution at 22° C. Whole-cell current recording and analysis were carried out using an Axopatch 200B amplifier and pClamp10 software (Axon Instruments, CA, USA). Patch electrodes were pulled from thin-walled borosilicate glass (World Precision Instruments, FL, USA) on a horizontal micropipette puller (Sutter Instruments, CA, USA). […] Analogue capacity compensation and 80% series resistance compensation were used during whole cell measurements. Membrane potentials were not corrected for junction potentials that arise between the pipette and bath solution. […] Data were sampled at 10-20 kHz and filtered at 5 to 10 kHz. […] Data are represented as mean±SE unless otherwise specified. For significance of differences, * represents p<0.05, ** p<0.01; statistical analysis was conducted using Student's t-test (unpaired). Clampfit software (Axon Instruments, CA, USA) was used to analyze current traces. Data from each test pulse (currents in the presence of drug) were normalized to control test pulse currents obtained before drug exposure. […] IC50 is the concentration producing half-maximal inhibition; and n is the Hill coefficient."}, "[2]": {"molecular_target": "T2, Kv1.5 C500A mutant channel (Homo sapiens, UniProt P22460, C500A)", "T2 construct": "subcloned as a fragment back into full-length Kv1.5; expressed in transfected cells; host or cells: HEK293, transient transfection", "T2 sequence (P22460 whole entry C500A, the tested form may be a part)": "as the sequence (P22460 whole entry A501V, the tested form may be a part) above, with C500A, V501A counted along it", "procedure": "as §1"}, "[3]": {"molecular_target": "T3, Kv1.5 I508L mutant channel (Homo sapiens, UniProt P22460, I508L)", "T3 construct": "subcloned as a fragment back into full-length Kv1.5; expressed in transfected cells; host or cells: HEK293, transient transfection", "T3 sequence (P22460 whole entry I508L, the tested form may be a part)": "as the sequence (P22460 whole entry A501V, the tested form may be a part) above, with V501A, I508L counted along it", "procedure": "as §1"}, "[4]": {"molecular_target": "T4, Kv1.5 I508Y mutant channel (Homo sapiens, UniProt P22460, I508Y)", "T4 construct": "subcloned as a fragment back into full-length Kv1.5; expressed in transfected cells; host or cells: HEK293, transient transfection", "T4 sequence (P22460 whole entry I508Y, the tested form may be a part)": "as the sequence (P22460 whole entry A501V, the tested form may be a part) above, with V501A, I508Y counted along it", "procedure": "as §1"}, "[5]": {"molecular_target": "T5, Kv1.5 P532L mutant channel (Homo sapiens, UniProt P22460, P532L)", "T5 construct": "subcloned as a fragment back into full-length Kv1.5; expressed in transfected cells; host or cells: HEK293, transient transfection", "T5 sequence (P22460 whole entry P532L, the tested form may be a part)": "as the sequence (P22460 whole entry A501V, the tested form may be a part) above, with V501A, P532L counted along it", "procedure": "as §1"}, "[6]": {"molecular_target": "T6, Kv1.5 T479S mutant channel (Homo sapiens, UniProt P22460, T479S)", "T6 construct": "subcloned as a fragment back into full-length Kv1.5; expressed in transfected cells; host or cells: HEK293, transient transfection", "T6 sequence (P22460 whole entry T479S, the tested form may be a part)": "as the sequence (P22460 whole entry A501V, the tested form may be a part) above, with T479S, V501A counted along it", "procedure": "as §1"}, "[7]": {"molecular_target": "T7, Kv1.5 T480A mutant channel (Homo sapiens, UniProt P22460, T480A)", "T7 construct": "subcloned as a fragment back into full-length Kv1.5; expressed in transfected cells; host or cells: HEK293, transient transfection", "T7 sequence (P22460 whole entry T480A, the tested form may be a part)": "as the sequence (P22460 whole entry A501V, the tested form may be a part) above, with T480A, V501A counted along it", "procedure": "as §1"}, "[8]": {"molecular_target": "T8, Kv1.5 T480S mutant channel (Homo sapiens, UniProt P22460, T480S)", "T8 construct": "subcloned as a fragment back into full-length Kv1.5; expressed in transfected cells; host or cells: HEK293, transient transfection", "T8 sequence (P22460 whole entry T480S, the tested form may be a part)": "as the sequence (P22460 whole entry A501V, the tested form may be a part) above, with T480S, V501A counted along it", "procedure": "as §1"}, "[9]": {"molecular_target": "T9, Kv1.5 V505L mutant channel (Homo sapiens, UniProt P22460, V505L)", "T9 construct": "subcloned as a fragment back into full-length Kv1.5; expressed in transfected cells; host or cells: HEK293, transient transfection", "T9 sequence (P22460 whole entry V505L, the tested form may be a part)": "as the sequence (P22460 whole entry A501V, the tested form may be a part) above, with V501A, V505L counted along it", "procedure": "as §1"}}, "note": "Structures can show the parent of a compound that is named as a salt."}
{"compound": "COc1ccc(CCO[C@@H]2CCCC[C@H]2N2CC[C@@H](O)C2)cc1OC", "note": "[Vernakalant, 3-Pyrrolidinol, 1-[(1R,2R)-2-[2-(3,4-dimethoxyphenyl)ethoxy]cyclohexyl]-,hydrochloride, (3R)]", "values": [{"measurement": "Hill coefficient", "setting": "[1]", "result": 0.85}, {"measurement": "Fractional Block ± SEM", "setting": "[1]; 10 μM vernakalant", "result": "0.69 ± 0.04"}, {"measurement": "Hill coefficient", "setting": "[2]", "result": 0.95}, {"measurement": "Fractional Block ± SEM", "setting": "[2]; 10 μM vernakalant", "result": "0.21 ± 0.04"}, {"measurement": "Hill coefficient", "setting": "[3]", "result": 1.00}, {"measurement": "Fractional Block ± SEM", "setting": "[3]; 10 μM vernakalant", "result": "0.38 ± 0.05"}, {"measurement": "Hill coefficient", "setting": "[4]", "result": 1.46}, {"measurement": "Fractional Block ± SEM", "setting": "[4]; 10 μM vernakalant", "result": "0.21 ± 0.03"}, {"measurement": "Hill coefficient", "setting": "[5]", "result": 0.96}, {"measurement": "Fractional Block ± SEM", "setting": "[5]; 10 μM vernakalant", "result": "0.26 ± 0.03"}, {"measurement": "Hill coefficient", "setting": "[6]", "result": 0.95}, {"measurement": "Fractional Block ± SEM", "setting": "[6]; 10 μM vernakalant", "result": "0.23 ± 0.04"}, {"measurement": "Hill coefficient", "setting": "[7]", "result": 0.88}, {"measurement": "Fractional Block ± SEM", "setting": "[7]; 10 μM vernakalant", "result": "0.23 ± 0.04"}, {"measurement": "Hill coefficient", "setting": "[8]", "result": 0.64}, {"measurement": "Fractional Block ± SEM", "setting": "[8]; 10 μM vernakalant", "result": "0.25 ± 0.07"}, {"measurement": "Hill coefficient", "setting": "[9]", "result": 0.77}, {"measurement": "Fractional Block ± SEM", "setting": "[9]; 10 μM vernakalant", "result": "0.22 ± 0.07"}]}
